The values that follow are results of earlier work, collected in patent publication US20080063637A1, “Regulation of oncogenesis by Akt-specific isoforms” (The Trustees of Tufts College, priority 2006, published 2008).

Series [1] deals with corresponding Akt isoforms (phosphorylation by PDK1). The following applies: Barnett et al. 2005.
For series [2], the system named is LNCap prostate cancer cells. As to conditions: Barnett et al. 2005.

`O=c1[nH]c2ccccc2n1C1CCN(Cc2ccc(-c3nc4cc5nc[nH]c5cc4nc3-c3ccccc3)cc2)CC1` [Akt-I-1,2]: the “phosphorylation and activation of the corresponding Akt isoforms by PDK1” value in series [1] is on record as “blocked”. In series [2], the TRAIL-induced apoptosis result is reported as “promote”.
